Experimental data reported in patent US6914045B2, “Glycopeptide antibiotics” (Wyeth Holdings Corporation, priority 2001, dated 2005).
In brackets after ≈: the same amount, converted by molar mass. Blank lines part the entries; values can stand above or below the compound they belong to. Numbered stars: 1 amine (or outer) side, 2 acyl side, 3 side chain; on linkers, the order of the positions; unused ones are H or OH. Square brackets hold non-standard residues; d marks the D form. Peptide text beside a SMILES is read from it. * marks the point of attachment. ξ: configuration not given here. X1 = N=C1NCC(C(O)C(N[*:1])C(=O)[*:2])N1C1OC(CO)C(O)C(O)C1O; ξEnduracididine(βξ-OH,4'ξ) = N=C1NCC(C(O)C(N)C(=O)O)N1; X2 = OCC1OC(OC2C(CO)OC(*)C(O)C2O)C(O)C(O)C1O; ξCha(3ξ-Me) = CC(C1CCCCC1)C(N)C(=O)O

Columns and labels:
Assay in all cases: in vitro antibacterial evaluation, MIC by broth dilution
Assay type in all cases: cell-based
[1] = tested on: Escherichia coli; details: 18 hours at 35° C.
In short: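 MIC is the lowest antibiotic concentration (tested 64-0.06 μg/mL) preventing growth of a 5×10^5 CFU/mL inoculum. Determined by broth dilution in Mueller-Hinton II medium following NCCLS standard M7-A2.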

[2] = tested on: Staphylococcus sp.; details: broth dilution, 18 hours at 35° C.; for MIC Staphylococcus aureus (ATCC 29213): strain ATCC 29213; for MIC Staphylococcus aureus (GC 1131): strain GC 1131; for MIC Staphylococcus aureus (GC 3051): strain GC 3051; for MIC Staphylococcus aureus (GC 3053): strain GC 3053; for MIC Staphylococcus aureus (GC 4541): strain GC 4541; for MIC Staphylococcus aureus (GC 4542): strain GC 4542; for MIC Staphylococcus aureus-SMITH (GC 4543): strain GC 4543; for MIC Staphylococcus aureus (GC 4544): strain GC 4544; for MIC Staphylococcus aureus (GC 4545): strain GC 4545; for MIC Staphylococcus haemolyticus (GC 4546): strain GC 4546; for MIC Coagulase Negative Staphylococcus (GC 4547): strain GC 4547; for MIC Coagulase Negative Staphylococcus (GC 4548): strain GC 4548; for MIC Coagulase Negative Staphylococcus (GC 4549): strain GC 4549; for MIC Coagulase Negative Staphylococcus (GC 4551): strain GC 4551
Protocol: (§1) Methods for in vitro Antibacterial Evaluation (Table 1)
(§2) The minimum inhibitory concentration (MIC), the lowest concentration of the antibiotic which inhibits growth of the test organism, is determined by the broth dilution method using Muller-Hinton II […] (Baltimore Biological Laboratories) following the recommendations of the National Committee for Clinical Laboratory Standards [Methods for dilution antimicrobial susceptibility tests for bacteria that grow aerobically, approved standard M7-A2, National Committee for Clinical Laboratory Standards, Villanova, Pa.].
(§3) An inoculum level of 5×10^5 CFU/mL, and a range of antibiotic concentrations (64-0.06 μg/mL) is used. […] The test organisms include a spectrum of Gram-positive bacteria comprised of Staphylococcus sp., Streptococcus sp. and Enterococcus sp. These organisms include recent clinical isolates that are resistant to methicillin, penicillin and/or vancomycin.

[3] = tested on: Streptococcus sp.; details: broth dilution, 18 hours at 35° C.
Protocol: as §1, §2, §3

[4] = tested on: Enterococcus sp.; details: broth dilution, 18 hours at 35° C.
Protocol: as §1, §2, §3

MIC Escherichia coli (ATCC 25922) ([1]; strain ATCC 25922, broth dilution): >64 µg/mL | MIC Escherichia coli (GC 4559) ([1]; strain GC 4559, broth dilution): 64 µg/mL (≈ 49.2 µM) | MIC Escherichia coli (GC 4560) ([1]; strain GC 4560, broth dilution): 8 µg/mL (≈ 6.15 µM) | MIC Staphylococcus aureus (ATCC 29213) [2]: 32 µg/mL (≈ 24.6 µM) | MIC Staphylococcus aureus (GC 1131) [2]: 32 µg/mL (≈ 24.6 µM) | MIC Staphylococcus aureus (GC 3051) [2]: 32 µg/mL (≈ 24.6 µM) | MIC Staphylococcus aureus (GC 3053) [2]: 64 µg/mL (≈ 49.2 µM) | MIC Staphylococcus aureus (GC 4541) [2]: 32 µg/mL (≈ 24.6 µM) | MIC Staphylococcus aureus (GC 4542) [2]: 32 µg/mL (≈ 24.6 µM) | MIC Staphylococcus aureus-SMITH (GC 4543) [2]: 32 µg/mL (≈ 24.6 µM) | MIC Staphylococcus aureus (GC 4544) [2]: 32 µg/mL (≈ 24.6 µM) | MIC Staphylococcus aureus (GC 4545) [2]: 32 µg/mL (≈ 24.6 µM) | MIC Coagulase Negative Staphylococcus (GC 4547) [2]: 16 µg/mL (≈ 12.3 µM) | MIC Coagulase Negative Staphylococcus (GC 4548) [2]: 16 µg/mL (≈ 12.3 µM) | MIC Coagulase Negative Staphylococcus (GC 4549) [2]: 4 µg/mL (≈ 3.07 µM) | MIC Coagulase Negative Staphylococcus (GC 4551) [2]: 64 µg/mL (≈ 49.2 µM) | MIC Streptococcus pneumoniae (ATCC 6301) ([3]; strain ATCC 6301): 8 µg/mL (≈ 6.15 µM) | MIC Streptococcus pneumoniae (GC 1894) ([3]; strain GC 1894): 4 µg/mL (≈ 3.07 µM) | MIC Streptococcus pyogenes (GC 4563) ([3]; strain GC 4563): 8 µg/mL (≈ 6.15 µM) | MIC Streptococcus agalactiae (GC 4564) ([3]; strain GC 4564): 16 µg/mL (≈ 12.3 µM) | MIC Streptococcus pneumoniae (GC 4565) ([3]; strain GC 4565): 8 µg/mL (≈ 6.15 µM) | MIC Enterococcus faecalis (ATCC 29212) ([4]; strain ATCC 29212): >64 µg/mL | MIC Enterococcus faecalis (GC 2242) ([4]; strain GC 2242): 64 µg/mL (≈ 49.2 µM) | MIC Enterococcus faecium (GC 2243) ([4]; strain GC 2243): >64 µg/mL | MIC Enterococcus faecalis (GC 2691) ([4]; strain GC 2691): >64 µg/mL | MIC Enterococcus faecalis (GC 3059) ([4]; strain GC 3059): >64 µg/mL | MIC Enterococcus faecalis (GC 4552) ([4]; strain GC 4552): >64 µg/mL | MIC Enterococcus faecalis (GC 4553) ([4]; strain GC 4553): >64 µg/mL | MIC Enterococcus faecalis (GC 4554) ([4]; strain GC 4554): >64 µg/mL | MIC Enterococcus faecium (GC 4556) ([4]; strain GC 4556): >64 µg/mL | MIC Enterococcus faecium (GC 4557) ([4]; strain GC 4557): 16 µg/mL (≈ 12.3 µM) | MIC Enterococcus avium (GC 4558) ([4]; strain GC 4558): 64 µg/mL (≈ 49.2 µM) | MIC Enterococcus faecalis (GC 6189) ([4]; strain GC 6189): >64 µg/mL
SMILES: CC(C1CCCCC1)C1NC(=O)CNC(=O)C(CO)NC(=O)C(C(O)C2CNC(=N)N2C2OC(CO)C(O)C(O)C2O)NC(=O)C(C(O)C2CNC(=N)N2)NC(=O)C(Cc2ccc(OC3OC(CO)C(OC4OC(CO)C(O)C(O)C4O)C(O)C3O)cc2)NC1=O (stereo not drawn) [Example 51, Cyclo[3-cyclohexyl-2-aminobutanoyl-O-(4-O-hexopyranosylhexopyranosyl)tyrosyl-3-(2-iminoimidazolidin-4-yl)seryl-3-(3-hexopyranosyl-2-iminoimidazolidin-4-yl)-serylserylglycyl]] (cyclo(G[ξCha(3ξ-Me)]Y(X2)[ξEnduracididine(βξ-OH,4'ξ)][X1]S); configuration not given here)
MIC Staphylococcus haemolyticus (GC 4546) [2]: 32 µg/mL (≈ 24.6 µM)

MIC Escherichia coli (ATCC 25922) [1]: 16 µg/mL (≈ 11.5 µM) | MIC Escherichia coli (GC 4559) [1]: 16 µg/mL (≈ 11.5 µM) | MIC Escherichia coli (GC 4560) [1]: 0.25 µg/mL (≈ 0.18 µM) | MIC Staphylococcus aureus (GC 1131) ([2]; inoculum 5×10^5 CFU/mL): 0.25 µg/mL (≈ 0.18 µM) | MIC Staphylococcus aureus (ATCC 29213) [2]: 0.25 µg/mL (≈ 0.18 µM) | MIC Staphylococcus aureus (GC 1131) [2]: 0.25 µg/mL (≈ 0.18 µM) | MIC Staphylococcus aureus (GC 3051) [2]: 0.5 µg/mL (≈ 0.36 µM) | MIC Staphylococcus aureus (GC 3053) [2]: 0.5 µg/mL (≈ 0.36 µM) | MIC Staphylococcus aureus (GC 4541) [2]: 0.5 µg/mL (≈ 0.36 µM) | MIC Staphylococcus aureus (GC 4542) [2]: 0.25 µg/mL (≈ 0.18 µM) | MIC Staphylococcus aureus-SMITH (GC 4543) [2]: 0.5 µg/mL (≈ 0.36 µM) | MIC Staphylococcus aureus (GC 4544) [2]: 0.25 µg/mL (≈ 0.18 µM) | MIC Staphylococcus aureus (GC 4545) [2]: 0.25 µg/mL (≈ 0.18 µM) | MIC Coagulase Negative Staphylococcus (GC 4547) [2]: 0.25 µg/mL (≈ 0.18 µM) | MIC Coagulase Negative Staphylococcus (GC 4548) [2]: 0.25 µg/mL (≈ 0.18 µM) | MIC Coagulase Negative Staphylococcus (GC 4549) [2]: 0.25 µg/mL (≈ 0.18 µM) | MIC Coagulase Negative Staphylococcus (GC 4551) [2]: 0.25 µg/mL (≈ 0.18 µM) | MIC Streptococcus agalactiae (GC 4564) [3]: <0.12 µg/mL | MIC Streptococcus pneumoniae (ATCC 6301) [3]: <0.12 µg/mL | MIC Streptococcus pneumoniae (GC 1894) [3]: <0.12 µg/mL | MIC Streptococcus pneumoniae (GC 4565) [3]: <0.12 µg/mL | MIC Streptococcus pyogenes (GC 4563) [3]: <0.12 µg/mL | MIC Streptococcus pneumoniae (ATCC 6301) ([3]; inoculum 5×10^5 CFU/mL, strain ATCC 6301): <0.12 µg/mL | MIC Streptococcus pneumoniae (GC 1894) ([3]; inoculum 5×10^5 CFU/mL, strain GC 1894): <0.12 µg/mL | MIC Streptococcus pyogenes (GC 4563) ([3]; inoculum 5×10^5 CFU/mL, strain GC 4563): <0.12 µg/mL | MIC Streptococcus agalactiae (GC 4564) ([3]; inoculum 5×10^5 CFU/mL, strain GC 4564): <0.12 µg/mL | MIC Streptococcus pneumoniae (GC 4565) ([3]; inoculum 5×10^5 CFU/mL, strain GC 4565): <0.12 µg/mL | MIC Enterococcus avium (GC 4558) [4]: 1 µg/mL (≈ 0.72 µM) | MIC Enterococcus faecalis (ATCC 29212) [4]: 1 µg/mL (≈ 0.72 µM) | MIC Enterococcus faecalis (GC 2242) [4]: 1 µg/mL (≈ 0.72 µM) | MIC Enterococcus faecalis (GC 2691) [4]: 1 µg/mL (≈ 0.72 µM) | MIC Enterococcus faecalis (GC 3059) [4]: 1 µg/mL (≈ 0.72 µM) | MIC Enterococcus faecalis (GC 4552) [4]: 1 µg/mL (≈ 0.72 µM) | MIC Enterococcus faecalis (GC 4553) [4]: 1 µg/mL (≈ 0.72 µM) | MIC Enterococcus faecalis (GC 4554) [4]: 1 µg/mL (≈ 0.72 µM) | MIC Enterococcus faecalis (GC 6189) [4]: 1 µg/mL (≈ 0.72 µM) | MIC Enterococcus faecium (GC 2243) [4]: 1 µg/mL (≈ 0.72 µM) | MIC Enterococcus faecium (GC 4556) [4]: 1 µg/mL (≈ 0.72 µM) | MIC Enterococcus faecium (GC 4557) [4]: 0.5 µg/mL (≈ 0.36 µM) | MIC Enterococcus faecalis (ATCC 29212) ([4]; inoculum 5×10^5 CFU/mL, strain ATCC 29212): 1 µg/mL (≈ 0.72 µM) | MIC Enterococcus faecalis (GC 2242) ([4]; inoculum 5×10^5 CFU/mL, strain GC 2242): 1 µg/mL (≈ 0.72 µM) | MIC Enterococcus faecium (GC 2243) ([4]; inoculum 5×10^5 CFU/mL, strain GC 2243): 1 µg/mL (≈ 0.72 µM) | MIC Enterococcus faecalis (GC 2691) ([4]; inoculum 5×10^5 CFU/mL, strain GC 2691): 1 µg/mL (≈ 0.72 µM) | MIC Enterococcus faecalis (GC 3059) ([4]; inoculum 5×10^5 CFU/mL, strain GC 3059): 1 µg/mL (≈ 0.72 µM) | MIC Enterococcus faecalis (GC 4552) ([4]; inoculum 5×10^5 CFU/mL, strain GC 4552): 1 µg/mL (≈ 0.72 µM) | MIC Enterococcus faecalis (GC 4553) ([4]; inoculum 5×10^5 CFU/mL, strain GC 4553): 1 µg/mL (≈ 0.72 µM) | MIC Enterococcus faecalis (GC 4554) ([4]; inoculum 5×10^5 CFU/mL, strain GC 4554): 1 µg/mL (≈ 0.72 µM) | MIC Enterococcus faecium (GC 4556) ([4]; inoculum 5×10^5 CFU/mL, strain GC 4556): 1 µg/mL (≈ 0.72 µM) | MIC Enterococcus faecium (GC 4557) ([4]; inoculum 5×10^5 CFU/mL, strain GC 4557): 0.5 µg/mL (≈ 0.36 µM) | MIC Enterococcus avium (GC 4558) ([4]; inoculum 5×10^5 CFU/mL, strain GC 4558): 1 µg/mL (≈ 0.72 µM) | MIC Enterococcus faecalis (GC 6189) ([4]; inoculum 5×10^5 CFU/mL, strain GC 6189): 1 µg/mL (≈ 0.72 µM)
SMILES: CC(C1CCCCC1)C1NC(=O)CNC(=O)C(CO)NC(=O)C(C(O)C2CNC(=N)N2C2OC(CO)C(O)C(O)C2O)NC(=O)C(C(O)C2CNC(=N)N2)NC(=O)C(Cc2ccc(OC3OC(CO)C(OC4OC5COC(c6ccccc6)OC5C(O)C4O)C(O)C3O)cc2)NC1=O (centres unmarked) [Example 201]
MIC Staphylococcus haemolyticus (GC 4546) [2]: 0.25 µg/mL (≈ 0.18 µM)
